Laboratory results as given in patent US10179777B2, “3-(1H-benzimidazol-2-yl)-1H-pyridin-2-one derivatives” (MERCK PATENT GMBH, priority 2015, dated 2019).
Where a name gives a salt, the structure may show the parent alone.

Key:
[1] = test system: ALK1-mediated SMAD1/5 phosphorylation in HUVEC cells; assay: Cell-based immunofluorescence assay for ALK1-mediated SMAD1/5 phosphorylation in HUVEC cells; conditions: Homo sapiens, 1.5 ng/ml BMP-9 with compound for 2 h, % nuclei with pSMAD1/5 signal, read-out: Smad 1/5 IC50
Excerpt: In vitro cell-based Immunofluorescence-Assay for identification of inhibitors of ALK1-mediated SMAD1/5 phosphorylation in HUVEC cells:
ALK1 is a type I cell-surface receptor for the TGF-β superfamily of ligands. In adults ALK1 is mainly expressed on activated endothelial cells, e.g. during wound healing or in tumor angiogenesis. BMP9 and BMP10 are high affinity ligands for ALK1.
BMP9 and BMP10 binding leads to the phosphorylation of so-called Smad1 at Ser463 and Ser465 in the carboxy-terminal motif SSXS, as well as Smad5 and Smad8 at their corresponding sites. These phosphorylated Smads dimerize with the coactivating Smad4 and translocate to the nucleus, where they stimulate transcription of target genes.
Primary endothelial cells (HUVEC: Human Umbilical Vein Endothelial Cells; supplier Promocell) are cultivated in the culture medium obtained from Promocell (with supplements corresponding to 5% FCS) for maximum 5 passages, seeded into black 384-well culture plates with clear bottom (3000 cells/well/30 μl), and incubated for 16-24 hours at 37° C., 5% CO2 and 90% rH.
The following day cells were serum-starved for 2-3 h in order to stop TGF-ß-mediated signalling derived from ligands present in FBS. 1.5 ng/ml BMP-9 was than added in parallel with test compounds for 2 h at 37° C., 5% CO2 in order to identify compounds which block functional activity of ALK1 leading to phosphorylation and nuclear translocation of SMAD1/5/8.
After fixation (15 min 4% Formaldehyd in PBS) and permeabilization (10 min 0.2% Triton X-100 in PBS) an indirect immunocytochemical staining is performed with a specific Phospho-Smad1/5 (Ser463/465) antibody (Cell Signaling #9516) and Alexa488-labelled secondary anti-rabbit-IgG-antibody. DNA staining with Propidium Iodide allowed parallel cell counting. Image acquisition and analysis was performed on an MDS ImageXpress Ultra confocal High Content Reader using the image analysis software MetaXpress. Final read-out were % nuclei with a pSMAD1/5 signal above a defined background.
The final DMSO concentration in the assay was 0.5%. DMSO-treated HUVEC cells served as neutral control (=0%) and cells treated with 10 μM of a reference inhibitor described in a patent served as inhibitor control (=−100%). Raw data were normalised to the neutral and inhibitory references. The assay was performed as dose response (10 compound dilutions, 1 nM-30 μM).

[2] = molecular target: T1, ALK5 (TGFβR1; GST-modified TGFBR1 (200-503)) (Homo sapiens, UniProt P36897); assay: ALK5 kinase inhibition assay (33P-ATP filter binding, Reaction Biology); assay type: biochemical; conditions: casein substrate, 200 μM ATP
T1 construct: Using GST-Modified TGFBR1 (200-503); GST
T1 sequence (P36897 200-503): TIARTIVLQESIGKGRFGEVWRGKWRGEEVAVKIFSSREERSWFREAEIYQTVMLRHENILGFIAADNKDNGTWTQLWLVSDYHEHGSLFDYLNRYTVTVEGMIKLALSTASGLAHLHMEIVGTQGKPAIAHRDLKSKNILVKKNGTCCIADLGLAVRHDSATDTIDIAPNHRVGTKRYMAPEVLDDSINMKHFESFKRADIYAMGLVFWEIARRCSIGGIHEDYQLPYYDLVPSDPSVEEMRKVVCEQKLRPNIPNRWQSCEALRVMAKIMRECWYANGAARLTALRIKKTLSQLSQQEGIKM
Method: (§1) The protein sequences of the kinases targeted and accompanying information are described in publically available data base http://www.uniprot.org/uniprot/for ALK1 www.uniprot.org/uniprot/P37023, for ALK2 www.uniprot.org/uniprot/Q04771 and for ALK5 www.uniprot.org/uniprot/P36897. IC50 determination of the novel inhibitors described was performed at Reaction Biology Corp., Malvern, Pa., USA, with assay conditions open to public at www.reactionbiology.com/webapps/site/KinaseDetail.aspx?page=Kinases&id=1, and www.reactionbiology.com/webapps/site/Kinase Assay Protocol.aspx. In addition, they were specified previously in Anastassiadis et al. Nat. Biotechnol. 29(11): 1039-1045. doi:10.1038/nbt.2017.
A3) ALK5 Kinase Inhibition Assay Was Performed Similar to Procedures A1 and A2 Using GST-Modified TGFBR1 (200-503) and 1 mg/ml Casein as Substrate at 200 μM ATP.

[3] = molecular target: T2, ALK1 (GST-modified kinase domain ACVRL1 (139-503)) (Homo sapiens, UniProt P37023); assay: ALK1 kinase inhibition assay (33P-ATP filter binding, Reaction Biology); assay type: biochemical; conditions: casein substrate, 100 μM ATP (Km ATP), 120 min ambient temperature
T2 construct: N-terminally GST-modified kinase domain ACVRL1 (139-503); GST (N)
T2 sequence (P37023 139-503): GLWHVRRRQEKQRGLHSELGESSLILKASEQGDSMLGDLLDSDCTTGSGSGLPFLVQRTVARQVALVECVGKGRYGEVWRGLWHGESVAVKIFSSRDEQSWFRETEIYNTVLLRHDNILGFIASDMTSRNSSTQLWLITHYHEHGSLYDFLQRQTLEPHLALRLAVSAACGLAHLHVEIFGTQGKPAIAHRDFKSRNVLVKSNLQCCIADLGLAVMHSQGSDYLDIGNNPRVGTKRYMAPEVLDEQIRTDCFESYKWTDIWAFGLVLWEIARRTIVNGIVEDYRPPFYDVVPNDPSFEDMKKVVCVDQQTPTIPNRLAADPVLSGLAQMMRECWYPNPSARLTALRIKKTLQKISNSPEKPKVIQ
Method: as §1
A1) ALK1 Kinase Inhibition Assay
(§2) was performed with N-terminally GST-modified kinase domain ACVRL1 (139-503) and 20 mg/ml Casein as substrate in reaction buffer of 20 mM HEPES pH 7.5, 10 mM MgCl2, 1 mM EGTA, 0.02% Brij, 0.02 mg/ml BSA, 0.1 mM Na3VO4, 2 mM DTT, 1% DMSO. […] Reactions were carried out at ambient temperature for 120 min, followed by spotting of the reactions onto P81 ion exchange filter paper (Whatman Inc., Picataway, N.J., USA). Unbound phosphate was removed by extensive washing of filters in 0.75% phosphoric acid. After subtraction of background derived from control reactions without enzyme activity, kinase activity data was expressed as the percent remaining kinase activity in test samples compared to vehicle (DMSO) reactions. IC50 values and curve fits were obtained using Prism (GraphPad Software).

[4] = molecular target: T3, ALK2 (GST-modified kinase domain ACVR1(145-509)) (Homo sapiens, UniProt Q04771); assay: ALK2 kinase inhibition assay (33P-ATP filter binding, Reaction Biology); assay type: biochemical; conditions: casein substrate, 20 μM ATP (Km ATP), 120 min ambient temperature
T3 construct: N-terminally GST-modified kinase domain ACVR1(145-509); GST (N)
T3 sequence (Q04771 145-509): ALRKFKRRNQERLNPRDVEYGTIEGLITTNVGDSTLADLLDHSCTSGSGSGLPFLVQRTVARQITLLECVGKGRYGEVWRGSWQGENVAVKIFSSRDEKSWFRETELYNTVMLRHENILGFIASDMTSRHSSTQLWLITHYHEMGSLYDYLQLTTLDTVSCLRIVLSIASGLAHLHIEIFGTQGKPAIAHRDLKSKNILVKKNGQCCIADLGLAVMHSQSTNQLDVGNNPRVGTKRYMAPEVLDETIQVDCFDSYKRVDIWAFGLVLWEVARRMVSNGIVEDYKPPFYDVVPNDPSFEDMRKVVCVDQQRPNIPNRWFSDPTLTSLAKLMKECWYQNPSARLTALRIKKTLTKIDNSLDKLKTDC
Method: as §1
A2) ALK2 Kinase Inhibition Assay
as §2, with “performed similar to procedure A1” for “performed”, “domain ACVR1(145-509)” for “domain ACVRL1 (139-503)”, “and 1” for “and 20”

SMILES	IC50 [1] [nM]	IC50 [2] [nM]	IC50 [3] [nM]	IC50 [4] [nM]
O=c1[nH]cc(-c2cccc(CO)c2)cc1-c1nc2cc(N3CCOCC3)ccc2[nH]1 [Compound A1, 5-(3-Hydroxymethyl-phenyl)-3-(5-morpholin-4-yl-1H-benzimidazol-2-yl)-1H-pyridin-2-one]	1300	3600	39	94
O=c1[nH]cc(-c2cccc(CO)c2)cc1-c1nc2cc(N3CCC(O)CC3)ccc2[nH]1 [Compound A12, 5-(3-Hydroxymethyl-phenyl)-3-[5-(4-hydroxy-piperidin-1-yl)-1H-benzimidazol-2-yl]-1H-pyridin-2-one]	7200	4100	28	57
O=c1[nH]cc(-c2cccc(CO)c2)cc1-c1nc2cc(N3CCNCC3)ccc2[nH]1 [Compound A13, 5-(3-Hydroxymethyl-phenyl)-3-(5-piperazin-1-yl-1H-benzimidazol-2-yl)-1H-pyridin-2-one dihydrochloride]	400	970	1	1
O=c1[nH]cc(-c2ccc(CO)cc2)cc1-c1nc2cc(N3CCNCC3)ccc2[nH]1 [Compound A16, 5-(4-Hydroxymethyl-phenyl)-3-(5-piperazin-1-yl-1H-benzimidazol-2-yl)-1H-pyridin-2-one]	590	2400	6	8
O=c1[nH]cc(-c2cccc(CO)c2)cc1-c1nc2cc(N3CCCNCC3)ccc2[nH]1 [Compound A17, 3-(5-[1,4]Diazepan-1-yl-1H-benzimidazol-2-yl)-5-(3-hydroxymethyl-phenyl)-1H-pyridin-2-one]	2500	3300	27	25
O=c1[nH]cc(-c2ccc(F)c(CO)c2)cc1-c1nc2cc(N3CCNCC3)ccc2[nH]1 [Compound A20, 5-(4-Fluoro-3-hydroxymethyl-phenyl)-3-(5-piperazin-1-yl-1H-benzimidazol-2-yl)-1H-pyridin-2-one]	7800	4400	24	19
O=c1[nH]cc(-c2cc(F)c(CO)c(F)c2)cc1-c1nc2cc(N3CCNCC3)ccc2[nH]1 [Compound A21, 5-(3,5-Difluoro-4-hydroxymethyl-phenyl)-3-(5-piperazin-1-yl-1H-benzimidazol-2-yl)-1H-pyridin-2-one dihydrochloride]	6100	5100	8.6	23
O=c1[nH]cc(-c2cc(CO)ccc2Cl)cc1-c1nc2cc(N3CCNCC3)ccc2[nH]1 [Compound A22, 5-(2-Chloro-5-hydroxymethyl-phenyl)-3-(5-piperazin-1-yl-1H-benzimidazol-2-yl)-1H-pyridin-2-one dihydrochloride]	3300	2100	3.5	16
O=c1[nH]cc(-c2cccc(CO)c2F)cc1-c1nc2cc(N3CCNCC3)ccc2[nH]1 [Compound A23, 5-(2-Fluoro-3-hydroxymethyl-phenyl)-3-(5-piperazin-1-yl-1H-benzimidazol-2-yl)-1H-pyridin-2-one]	130	1600	2	22
O=c1[nH]cc(-c2ccc(F)c(CO)c2)cc1-c1nc2cc(N3CCCNCC3)ccc2[nH]1 [Compound A24, 3-(5-[1,4]Diazepan-1-yl-1H-benzimidazol-2-yl)-5-(4-fluoro-3-hydroxymethyl-phenyl)-1H-pyridin-2-one]		6500	33	41
CN1CCN(c2ccc3[nH]c(-c4cc(-c5cccc(CO)c5F)c[nH]c4=O)nc3c2)CC1 [Compound A37, 5-(2-Fluoro-3-hydroxymethyl-phenyl)-3-[5-(4-methyl-piperazin-1-yl)-1H-benzimidazol-2-yl]-1H-pyridin-2-one trifluoroacetate]		2500	4	30
O=c1[nH]cc(-c2ccnc3[nH]ccc23)cc1-c1nc2cc(N3CCC(O)CC3)ccc2[nH]1 [Compound A38, 3-[5-(4-Hydroxy-piperidin-1-yl)-1H-benzimidazol-2-yl]-5-(1H-pyrrolo[2,3-b]-pyridin-4-yl)-1H-pyridin-2-one]		320	3.7	19
O=c1[nH]cc(-c2ccnc3[nH]ccc23)cc1-c1nc2cc(N3CCCNCC3)ccc2[nH]1 [Compound A47, 3-(5-[1,4]Diazepan-1-yl-1H-benzimidazol-2-yl)-5-(1H-pyrrolo[2,3-b]pyridin-4-yl)-1H-pyridin-2-one]		200	1	38
